One series concerns AANAT. Particulars: 2-fluorohistidine replaces histidine; cited from earlier work.
Series [1] has as its target T1, GST-AANAT (Ovis aries, UniProt Q29495).
T1 construct: The entire open reading frame of the DNA encoding sheep AANAT in the plasmid vector pET15b; made in house; host or cells: Escherichia coli BL21(DE3)pLysS
The series is described as follows: Two-substrate steady state kinetics with GST-AANAT. The series is classed as biochemical, sheep. As to the method: DTNB Product Detection Assay
This assay is based on the detection of CoASH generated during acetyl transfer by reaction with the thiol reagent DTNB (19). […] Reactions were initiated with enzyme (3 μl, 5-30 nM final concentration) that had been prediluted (10-100 fold) in 50 mM sodium phosphate, 500 mM NaCl, 2 mM EDTA, and 0.05 mg/ml bovine serum albumin in the absence of reducing agent immediately before use and maintained on ice during the assay. The reactions were quenched for 0-3 min with 0.6 ml of a buffer containing guanidinium-HCl (3.2 M), sodium phosphate (0.1 M), pH 6.8. […] Background absorbances (with all components added including enzyme) were measured and subtracted from the total absorbance.
Two-Substrate Kinetic Measurements
Two substrate kinetic analysis was performed with substrate concentrations given in FIG. 3, and the data were fitted to the sequential (ternary complex) mechanism equation (Equation 2) using the computer program Kinet-Asyst II™ (IntelliKinetics, State College, Pa.) based on the algorithms of Cleland (20),
.upsilon.=Vm ·A·B/(Ka ·Kb
·Kma ·B+Kmb ·A+A·B)(Eq. 2)
using a nonlinear least squares approach.

Series [2] addresses T1, GST-AANAT. The series can be described thus: Effect of DTNB on GST-AANAT activity. The series is classed as biochemical, sheep. As to the method:
The potential difficulty with this approach was that reducing agents such as dithiothreitol and β-mercaptoethanol react with DTNB (Ellman's reagent). Indeed, GST-AANAT is somewhat unstable in the absence of reducing agents, losing greater than 50% activity within 2 h at 4° C. (data not shown). However, the enzyme was stable within the short incubation periods used in these studies (less than 3 min). It was shown unequivocally that CoASH generation was coupled tightly to N-acetyltryptamine formation, and the activity was linear with time and enzyme concentration.

For series [3] the following is noted: people; cited from earlier work.
Series [4] deals with intracellular receptors for melatonin. The settings on record: intracellular orphan receptors vs G-protein family; cited from earlier work.

Read-outs that look alike come from different tables or passages of the source.

T1 sequence (Q29495 other isoform, or with tags, fused parts or gaps): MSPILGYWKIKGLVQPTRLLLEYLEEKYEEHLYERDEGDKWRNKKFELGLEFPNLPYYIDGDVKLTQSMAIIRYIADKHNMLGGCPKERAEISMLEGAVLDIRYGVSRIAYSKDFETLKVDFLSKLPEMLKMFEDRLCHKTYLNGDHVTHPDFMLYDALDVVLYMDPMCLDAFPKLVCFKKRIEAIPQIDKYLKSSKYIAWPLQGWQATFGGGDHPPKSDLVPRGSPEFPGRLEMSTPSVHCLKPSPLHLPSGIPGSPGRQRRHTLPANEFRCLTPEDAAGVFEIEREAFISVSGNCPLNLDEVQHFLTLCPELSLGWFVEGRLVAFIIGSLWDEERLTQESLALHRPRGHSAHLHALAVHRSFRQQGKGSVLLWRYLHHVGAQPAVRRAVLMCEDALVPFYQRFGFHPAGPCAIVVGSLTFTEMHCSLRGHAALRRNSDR

For the molecule `N[C@@H](Cc1c[nH]c(F)n1)C(=O)O` [2-fluorohistidine], the “induction of AANAT in the pineal” value in the series with AANAT is given as “induction of AANAT in the pineal is blocked”. As for `CC(=O)SCCNC(=O)CCNC(=O)[C@H](O)C(C)(C)COP(=O)(O)OP(=O)(O)OC[C@H]1O[C@@H](n2cnc3c(N)ncnc32)[C@H](O)[C@@H]1OP(=O)(O)O` [Acetyl-CoA, acetyl-CoA], the Kd at GST-AANAT [1] (ordered sequential mechanism, read-out: Kin (dissociation constant of the first binding substrate)) turned out to be 509 ± 156 µM; on GST-AANAT [1] (read-out: dissociation constant (Kd)) it was 510 µM. In the case of `O=C(O)c1cc(SSc2ccc([N+](=O)[O-])c(C(=O)O)c2)ccc1[N+](=O)[O-]` [DTNB, 5,5'-dithiobis-(2-nitrobenzoic acid], on GST-AANAT [2], the “effect on GST-AANAT activity” value was “inhibited GST-AANAT activity”. `COc1ccc2[nH]cc(CCNC(C)=O)c2c1` [Melatonin, 5-methoxy-N-acetyltryptamine]: in series [3], the oral bioavailability variability is reported as 25 fold range. Moreover, the “Kd of binding and activation, higher compared to G-protein family receptors” value in series [4] was 10-100 fold.

Values taken from US5990094A, “Inhibitors of sorotonin N-acetyltransferase” (The Rockefeller University, priority 1998, dated 1999).
